Read-outs that look alike come from different tables or passages of the source.
Key:
[1] = previous intravenous injection formulation, in rats; cited from earlier work
[2] = LD50 of previous intravenous injection formulation, converted to mice; conditions: mouse, in vivo, equivalent of the rat value in mice, read-out: lethal dosage 50% (LD50), equivalent in mice
[3] = cited from earlier work
[4] = tested on: CT26 model; assay: Mouse colon cancer model; type: in vivo, Balb/c mice; conditions: 5-FU 25 mg/kg, RAP-E 25 mg/kg
Procedure: CT26 model on Balb/c mice was used as another animal model, classified as three groups: a control group (no drug), a comparative group (administration of 5-FU, dose: 25 mg/kg, Q3d^∗4) and the inventive group (administration of RAP-E formulation, dose: 25 mg/kg, Q3d^∗4). 6 week old Balb/c mice (BioLasco, Ilan, Taiwan) were inoculated subcutaneously with 1^∗10^5 CT26 cells (murine colorectal carcinoma cell). Following tumor inoculation, measuring the tumor size twice a week, and starting treatment when the tumor grows to 80-100 mm^3.

[5] = tested on: SKOV3 xenograft; assay: Xenograft ovarian tumor in mice; type: in vivo, NOD/SCID mice; conditions: docetaxel 4 mg/kg, RAP-E 50 mg/kg
From the text: Akt and mTOR phosphorylation are frequently detected in ovarian cancer, and SKOV3, an ovarian cancer cell line, is resistant to cis-platinum and doxorubicin.

For CO[C@H]1C[C@@H]2CC[C@@H](C)[C@@](O)(O2)C(=O)C(=O)N2CCCC[C@H]2C(=O)O[C@H]([C@H](C)C[C@@H]2CC[C@@H](O)[C@H](OC)C2)CC(=O)[C@H](C)/C=C(\C)[C@@H](O)[C@@H](OC)C(=O)[C@H](C)C[C@H](C)/C=C/C=C/C=C/1C [Rapamycin], the “lethal dosage 50% (LD50)” value [1] is given as 40 mg/kg and the LD50 [2] is given as 80 mg/kg.
In the case of CO[C@H]1C[C@@H]2CC[C@@H](C)[C@@](O)(O2)C(=O)C(=O)N2CCCC[C@H]2C(=O)O[C@H]([C@H](C)C[C@@H]2CC[C@@H](OC(=O)C(C)(CO)CO)[C@H](OC)C2)CC(=O)[C@H](C)/C=C(\C)[C@@H](O)[C@@H](OC)C(=O)[C@H](C)C[C@H](C)/C=C/C=C/C=C/1C [temsirolimus], the bioavailability ([3]; via intravenous infusion) is listed as “up to 100%”.
In the case of O=c1[nH]cc(F)c(=O)[nH]1 [5-FU], the Mean inhibition rate ([4]; Q3d*4) is reported as 11%, the “body weight change / toxicity” value ([4]; Q3d*4) is reported as “significant weight loss” and the “Day 16 tumor inhibition rate” value ([4]; Q3d*4, day 16) is reported as 26%.
For CO[C@H]1C[C@@H]2CC[C@@H](C)[C@@](O)(O2)C(=O)C(=O)N2CCCC[C@H]2C(=O)O[C@H]([C@H](C)C[C@@H]2CC[C@@H](OCCO)[C@H](OC)C2)CC(=O)[C@H](C)/C=C(\C)[C@@H](O)[C@@H](OC)C(=O)[C@H](C)C[C@H](C)/C=C/C=C/C=C/1C [everolimus], the bioavailability ([3]; in a tablet form) is given as ~ 20%.
With CC(=O)O[C@@]12CO[C@@H]1C[C@H](O)[C@@]1(C)C(=O)[C@H](O)C3=C(C)[C@@H](OC(=O)[C@H](O)[C@@H](NC(=O)OC(C)(C)C)c4ccccc4)C[C@@](O)([C@@H](OC(=O)c4ccccc4)[C@H]21)C3(C)C [docetaxel] the Mean inhibition rate ([5]; Q3d*4) was 53% and the “Day 39 tumor inhibition rate” value ([5]; Q3d*4, day 39) was 57%.
